# Measured values reported in patent US20240294572A1, “Antimicrobial Peptides” (priority 2021, published 2024).
# Residues, ends and D or L forms follow the SMILES beside them. *: point of attachment. Myristoyl = CCCCCCCCCCCCCC(=O)*; Lauroyl = CCCCCCCCCCCC(=O)*; Decanoyl = CCCCCCCCCC(=O)*; Octanoyl = CCCCCCCC(=O)*; Hexanoyl = CCCCCC(=O)*
# Columns and labels:
# Type in all cases: cell-based
# [1] = test system: E. coli ATCC 25922
# Protocol: (§1) The antibacterial activity of peptides was evaluated using a standard broth microdilution protocol (Clinical Laboratories Standards Institute (CLSI): M07-A10. Methods for Dilution Antimicrobial Susceptibility Tests for Bacteria that grow aerobically; Approved Standard, Tenth Edition, 2015) with minor modifications as described (Mishra, et al. (2019) Proc. Natl. Acad. Sci., 116:13517-13522). In brief, peptides (10 μL per well) with 2-fold dilutions were made in 96-well polystyrene microplates. Subsequently, the logarithmic phase bacterial cultures (i.e., optical density at 600 nm ˜0.5) were diluted to 0.001 OD and aliquoted to 90 μL per well. The plates were incubated overnight at 37°° C. Bacterial controls were treated with water, and the wells containing only the TSB media were used as blank. Positive controls included the parent peptide LL-37 as well as KR12. Post incubation, the plates were read at 630 nm using ChroMate® 4300 Microplate Reader (Awareness Technology, FL).
# (§2) To study the influence of medium conditions on the antimicrobial activity of peptides against S. aureus USA300, different pH, sodium chloride (NaCl), human sera were included into the antibacterial assays. Control experiments in TSB without any additions (pH 7.4) were set up in the same manner. In addition, antimicrobial activities of human LL-37, KR12, and C10-KR8d were compared in 10%, 50%, and 100% TSB as well as in TSB and MHB using E. coli ATCC 25922 and S. aureus USA300 LAC.
# [2] = test system: S. aureus USA300 LAC; settings: USA300
# Protocol: as §1, §2
# [3] = test system: Klebsiella pneumonia ATCC 13883; assay: Antibacterial broth microdilution MIC
# Protocol: as §1
# [4] = test system: human red blood cells (hRBCs); settings: red cells of human, 1 h
# Protocol: Hemolytic assays of peptides were performed as described (Lakshmaiah, et al. (2020) Proc. Natl. Acad. Sci., 117:19446-19454). Briefly, human red blood cells (hRBCs) were obtained from UNMC Blood Bank. The cells were washed 3× with isotonic saline (0.9% NaCl) and diluted to 2% (v/v). Peptides at various concentrations were added to the 2% blood cells and incubated at 37° C. for 1 hour. Post-incubation, the plates were spun at 2000 rpm for 10 minutes; aliquots of the supernatant were carefully transferred to a fresh 96-well microplate. The amount of cells lysed is proportional to the hemoglobin released and was measured at 545 nm using a ChroMate® microplate reader (Awareness Technology, FL). The percent lysis was calculated by assuming 100% release when human blood cells were treated with 1% Triton™ X-100, and 0% release when incubated with PBS. The peptide concentration that caused 50% lysis of hRBCs is defined as HC50. The cell selectivity index (CSI) was calculated as the ratio between HC50 and the MIC of the corresponding peptide against MRSA.
# [5] = test system: P. aeruginosa PAO1
# Protocol: as §1
SMILES,MIC (μM) EC [1] [µM],MIC (μM) SA [2] [µM],MIC (μM) KP [3] [µM],HC50 [4] [µM],MIC (μM) PA [5] [µM]
CCCCCC(=O)N[C@@H](CCCCN)C(=O)N[C@@H](CCCNC(=N)N)C(=O)N[C@H](C(=O)N[C@@H](Cc1c[nH]c2ccccc12)C(=O)N[C@@H](CCC(N)=O)C(=O)N[C@@H](CCCNC(=N)N)C(=O)N[C@H](C(=O)N[C@@H](CCCCN)C(=O)N[C@@H](CC(=O)O)C(=O)N[C@@H](Cc1ccccc1)C(N)=O)[C@@H](C)CC)[C@@H](C)CC [Peptide C6-KR10] (Hexanoyl-KRIWQRIKDF-NH2),50,25,>50,>200,50
CCCCCC(=O)N[C@@H](CCCCN)C(=O)N[C@@H](CCCNC(=N)N)C(=O)N[C@H](C(=O)N[C@@H](Cc1c[nH]c2ccccc12)C(=O)N[C@@H](CCC(N)=O)C(=O)N[C@@H](CCCNC(=N)N)C(N)=O)[C@@H](C)CC [Peptide C6-KR6] (Hexanoyl-KRIWQR-NH2),>50,>50,>50,>200,>50
CCCCCCCCCCCC(=O)N[C@@H](CCCCN)C(=O)N[C@@H](CCCNC(=N)N)C(=O)N[C@H](C(=O)N[C@@H](Cc1c[nH]c2ccccc12)C(N)=O)[C@@H](C)CC [Peptide C12-KR4] (Lauroyl-KRIW-NH2),12.5,3.1,>50,30,6.2
CCCCCCCC(=O)N[C@@H](CCCCN)C(=O)N[C@@H](CCCNC(=N)N)C(=O)N[C@H](C(=O)N[C@@H](Cc1c[nH]c2ccccc12)C(=O)N[C@@H](CCC(N)=O)C(=O)N[C@@H](CCCNC(=N)N)C(=O)N[C@H](C(=O)N[C@@H](CCCCN)C(=O)N[C@@H](CC(=O)O)C(=O)N[C@@H](Cc1ccccc1)C(=O)N[C@@H](CC(C)C)C(=O)N[C@@H](CCCNC(=N)N)C(N)=O)[C@@H](C)CC)[C@@H](C)CC [Peptide C8-KR12] (Octanoyl-KRIWQRIKDFLR-NH2),6.2,3.1,<6.2,<25,6.2
CCCCCC(=O)N[C@@H](CCCCN)C(=O)N[C@@H](CCCNC(=N)N)C(=O)N[C@H](C(=O)N[C@@H](Cc1c[nH]c2ccccc12)C(N)=O)[C@@H](C)CC [Peptide C6-KR4] (Hexanoyl-KRIW-NH2),>50,>50,>50,>200,>50
CCCCCCCCCC(=O)N[C@@H](CCCCN)C(=O)N[C@@H](CCCNC(=N)N)C(=O)N[C@H](C(=O)N[C@@H](Cc1c[nH]c2ccccc12)C(=O)N[C@@H](CCC(N)=O)C(=O)N[C@@H](CCCNC(=N)N)C(=O)N[C@H](C(=O)N[C@@H](CCCCN)C(=O)N[C@@H](CC(=O)O)C(=O)N[C@@H](Cc1ccccc1)C(=O)N[C@@H](CC(C)C)C(=O)N[C@@H](CCCNC(=N)N)C(N)=O)[C@@H](C)CC)[C@@H](C)CC [Peptide C10-KR12] (Decanoyl-KRIWQRIKDFLR-NH2),>50,3.1,6.2 to 12.5,<25,25
CCCCCCCCCCCCCC(=O)N[C@@H](CCCCN)C(=O)N[C@@H](CCCNC(=N)N)C(=O)N[C@H](C(=O)N[C@@H](Cc1c[nH]c2ccccc12)C(N)=O)[C@@H](C)CC [Peptide C14-KR4] (Myristoyl-KRIW-NH2),12.5 to 50,3.1,12.5,<25,6.2
CCCCCCCC(=O)N[C@@H](CCCCN)C(=O)N[C@@H](CCCNC(=N)N)C(=O)N[C@H](C(=O)N[C@@H](Cc1c[nH]c2ccccc12)C(=O)N[C@@H](CCC(N)=O)C(=O)N[C@@H](CCCNC(=N)N)C(=O)N[C@H](C(=O)N[C@@H](CCCCN)C(N)=O)[C@@H](C)CC)[C@@H](C)CC [Peptide C8-KR8] (Octanoyl-KRIWQRIK-NH2),25,6.2,>50,>200,12.5
